Columns and labels:
[1] = tested on: diamondback moth (Plutella xylostella); assay: Insecticidal effect on diamondback moth (Test Example 1); assay type: in vivo; settings: for Insecticidal effect, Test Example 1 / Insecticidal effect (Test Example 1), judged from mortality: diamondback moth; for Insecticidal effect (Test Example 1), judged from mortality: judged by the criterion of Test Example 1; for Insecticidal effect on diamondback moth (Test Example 1), judged grade: mortality judged according to the criterion shown in Test Example 1
Summary of the method: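 Eggs laid by adult moths on Chinese cabbage seedlings, which were immersed in test solution, air-dried and kept at 25 °C. Hatched insects counted 6 days after immersion and mortality calculated, with effect graded by criterion; triplicate groups of 10 insects.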

[2] = tested on: rice leafroller (Cnaphalocrocis medinalis); assay: Insecticidal effect on rice leafroller (Test Example 3); assay type: in vivo; settings: 500 ppm, 25° C., humidity 70%; for Insecticidal effect, Test Example 3: rice lamina immersed; for Insecticidal effect, Test Example 3 / Insecticidal effect on rice leafroller (Test Example 3), judged grade: four days after inoculation; for Insecticidal effect (Test Example 3), judged from mortality / Insecticidal effect on rice leafroller (Test Example 3), judged grade: rice lamina dip; for Insecticidal effect (Test Example 3), judged from mortality: 4 days after inoculation; for Insecticidal effect on rice leafroller (Test Example 3), judged grade: third-instar larvae
Summary of the method: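 Groups of 10 third-instar larvae, in triplicate, are placed on air-dried lamina resting on wet filter paper. Incubation runs four days at 25° C with 70% humidity before survivors and dead are tallied.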

[3] = mortality judged by criterion of Test Example 1
[4] = rice leafroller third-instar larvae
[5] = judged by the mortality criterion of Test Example 1
[6] = third-instar larvae of rice leafroller

SMILES: CCC(CO)NC(=O)c1cccc(Cl)c1C(=O)Nc1ccc(C(F)(F)C(F)(F)F)cc1C (stereo not drawn) [compound 1441]
- Insecticidal effect, Test Example 1 [1, 3]: A (100)
- Insecticidal effect, Test Example 3 [2, 4]: A (100)

SMILES: CCC(C)NC(=O)c1cccc(I)c1C(=O)Nc1ccc(C(F)(F)C(F)(F)F)cc1C (stereo not drawn) [compound 1008]
- Insecticidal effect, Test Example 1 [1, 3]: A (100)
- Insecticidal effect, Test Example 3 [2, 4]: A (100)

SMILES: CC(C)NC(=O)c1cccc(Cl)c1C(=O)Nc1cccc([S+]([O-])C(F)(F)F)c1 (stereo not drawn) [compound 206]
- Insecticidal effect, Test Example 1 [1, 5]: A (100)
- Insecticidal effect, Test Example 3 [2, 6]: A (100)

SMILES: CCCNC(=O)c1cccc(I)c1C(=O)Nc1ccc(C(F)(C(F)(F)F)C(F)(F)F)cc1C [compound 1076]
- Insecticidal effect, Test Example 1 [1, 3]: A (100)
- Insecticidal effect, Test Example 3 [2, 4]: A (100)

SMILES: C=CCON=C(C)c1ccc(NC(=O)c2cccc(I)c2C(=O)NC(C)C)cc1 [compound 1750]
- Insecticidal effect (Test Example 1), judged from mortality [1]: A (100)
- Insecticidal effect (Test Example 3), judged from mortality [2, 6]: A (100)

SMILES: Cc1cc(C(F)(F)C(F)(F)F)ccc1NC(=O)c1cccc(Cl)c1C(=O)NCc1ccc(Cl)c(Cl)c1 [compound 1351]
- Insecticidal effect, Test Example 1 [1, 3]: A (100)
- Insecticidal effect, Test Example 3 [2, 4]: A (100)

SMILES: Cc1cc(C(F)(F)C(F)(F)F)ccc1NC(=O)c1c(F)cccc1C(=O)NC(C)C [compound 551]
- Insecticidal effect on diamondback moth (Test Example 1), judged grade [1]: A (100)
- Insecticidal effect on rice leafroller (Test Example 3), judged grade [2]: A (100)

SMILES: Cc1cc(OC(F)(F)F)ccc1NC(=O)c1c(Cl)cccc1C(=O)NC(C)C [compound 237]
- Insecticidal effect, Test Example 1 [1, 5]: A (100)
- Insecticidal effect, Test Example 3 [2, 6]: A (100)

SMILES: CC(C)NC(=O)c1c(F)cccc1C(=O)Nc1ccc(C(F)(F)C(F)(F)C(F)(F)C(F)(F)F)cc1 [compound 472]
- Insecticidal effect on diamondback moth (Test Example 1), judged grade [1]: A (100)
- Insecticidal effect on rice leafroller (Test Example 3), judged grade [2]: B (99-90)

SMILES: CCCCc1ccc(NC(=O)c2cccc(Cl)c2C(=O)NC(C)C)cc1 [compound 87]
- Insecticidal effect, Test Example 1 [1, 5]: A (100)
- Insecticidal effect, Test Example 3 [2, 6]: A (100)

SMILES: Cc1ccc(Cl)cc1NC(=O)c1ccc(F)cc1C(=O)NC(C)C [compound 530]
- Insecticidal effect on diamondback moth (Test Example 1), judged grade [1]: A (100)
- Insecticidal effect on rice leafroller (Test Example 3), judged grade [2]: D (79-50)

SMILES: CNC(=O)c1cccc(I)c1C(=O)Nc1ccc(C(F)(F)C(F)(F)F)cc1C [compound 1312]
- Insecticidal effect, Test Example 1 [1, 3]: A (100)
- Insecticidal effect, Test Example 3 [2, 4]: A (100)

SMILES: CC(C)NC(=O)c1ccccc1C(=O)Nc1ccc(SC(F)(F)Br)cc1 [compound 1106]
- Insecticidal effect, Test Example 1 [1, 3]: A (100)
- Insecticidal effect, Test Example 3 [2, 4]: A (100)

SMILES: CCNC(=O)c1c(Cl)cccc1C(=O)Nc1ccc(C(F)(F)C(F)(F)C(F)(F)F)cc1F [compound 1490]
- Insecticidal effect (Test Example 1), judged from mortality [1]: A (100)
- Insecticidal effect (Test Example 3), judged from mortality [2, 6]: A (100)

SMILES: CCC(C)CNC(=O)c1c(I)cccc1C(=O)Nc1ccc(C(F)(F)C(F)(F)F)cc1C (stereo not drawn) [compound 1026]
- Insecticidal effect, Test Example 1 [1, 3]: A (100)
- Insecticidal effect, Test Example 3 [2, 4]: A (100)

SMILES: CCN(CC)C(=O)c1c(F)cccc1C(=O)Nc1ccc(C(F)(F)F)cc1 [compound 1547]
- Insecticidal effect (Test Example 1), judged from mortality [1]: A (100)
- Insecticidal effect (Test Example 3), judged from mortality [2, 6]: A (100)

SMILES: CCN(CC)C(=O)c1c(F)cccc1C(=O)Nc1ccc(OC(F)F)cc1C [compound 1528]
- Insecticidal effect (Test Example 1), judged from mortality [1]: A (100)
- Insecticidal effect (Test Example 3), judged from mortality [2, 6]: A (100)

SMILES: Cc1cc(Br)ccc1NC(=O)c1cccc([N+](=O)[O-])c1C(=O)NC(C)C [compound 671]
- Insecticidal effect on diamondback moth (Test Example 1), judged grade [1]: A (100)
- Insecticidal effect on rice leafroller (Test Example 3), judged grade [2]: D (79-50)

SMILES: CC(C)NC(=O)c1c(Cl)cccc1C(=O)Nc1cc2c(cc1Cl)OC(F)(F)C(F)(F)O2 [compound 1643]
- Insecticidal effect (Test Example 1), judged from mortality [1]: A (100)
- Insecticidal effect (Test Example 3), judged from mortality [2, 6]: A (100)

SMILES: CC(C)(C)NC(=O)c1ccccc1C(=O)Nc1ccc(C(F)(F)F)cc1 [compound 928]
- Insecticidal effect on diamondback moth (Test Example 1), judged grade [1]: A (100)
- Insecticidal effect on rice leafroller (Test Example 3), judged grade [2]: A (100)

SMILES: CCc1ccccc1NC(=O)c1cccc([N+](=O)[O-])c1C(=O)NC(C)C [compound 602]
- Insecticidal effect on diamondback moth (Test Example 1), judged grade [1]: A (100)
- Insecticidal effect on rice leafroller (Test Example 3), judged grade [2]: A (100)

SMILES: CC(C)NC(=O)c1c(Cl)cccc1C(=O)Nc1ccc(OC(F)F)c(Cl)c1 [compound 134]
- Insecticidal effect, Test Example 1 [1, 5]: A (100)
- Insecticidal effect, Test Example 3 [2, 6]: A (100)

SMILES: CC(C)NC(=O)c1cccc(I)c1C(=O)Nc1ccc(Br)cc1 [compound 412]
- Insecticidal effect, Test Example 1 [1, 5]: A (100)
- Insecticidal effect, Test Example 3 [2, 6]: C (89-80)

SMILES: CCOP(=O)(OCC)c1ccc(NC(=O)c2c(Cl)cccc2C(=O)NC(C)C)c(C)c1 [compound 251]
- Insecticidal effect, Test Example 1 [1, 5]: A (100)
- Insecticidal effect, Test Example 3 [2, 6]: A (100)

SMILES: Cc1cc(OC(F)(F)C(F)(F)c2ccccc2)ccc1NC(=O)c1cccc(I)c1C(=O)NC(C)C [compound 1088]
- Insecticidal effect, Test Example 1 [1, 3]: A (100)
- Insecticidal effect, Test Example 3 [2, 4]: A (100)

SMILES: Cc1cc(C(F)(F)C(F)(F)F)ccc1NC(=O)c1cccc(I)c1C(=O)NC1CCCCC1 [compound 993]
- Insecticidal effect, Test Example 1 [1, 3]: A (100)
- Insecticidal effect, Test Example 3 [2, 4]: A (100)

SMILES: Cc1cc(Oc2cccc(C(F)(F)F)c2)ccc1NC(=O)c1cccc([N+](=O)[O-])c1C(=O)NC(C)C [compound 724]
- Insecticidal effect on diamondback moth (Test Example 1), judged grade [1]: A (100)
- Insecticidal effect on rice leafroller (Test Example 3), judged grade [2]: B (99-90)

SMILES: CCC(COC)NC(=O)c1cccc(I)c1C(=O)Nc1ccc(C(F)(F)C(F)(F)F)cc1C (stereo not drawn) [compound 1014]
- Insecticidal effect, Test Example 1 [1, 3]: A (100)
- Insecticidal effect, Test Example 3 [2, 4]: A (100)

SMILES: CCN(CC)C(=O)c1c(C(=O)Nc2ccc(OC(F)(F)C(F)F)cc2C)cccc1[N+](=O)[O-] [compound 1132]
- Insecticidal effect, Test Example 1 [1, 3]: A (100)
- Insecticidal effect, Test Example 3 [2, 4]: A (100)

SMILES: CC(C)NC(=O)c1c(Cl)cccc1C(=O)Nc1ccc([S+]([O-])C(F)(F)Br)cc1 (stereo not drawn) [compound 1111]
- Insecticidal effect, Test Example 1 [1, 3]: A (100)
- Insecticidal effect, Test Example 3 [2, 4]: A (100)

SMILES: CC(C)NC(=O)c1c(C(=O)Nc2cc(C(F)(F)F)ccc2Cl)cccc1[N+](=O)[O-] [compound 661]
- Insecticidal effect on diamondback moth (Test Example 1), judged grade [1]: B (99-90)
- Insecticidal effect on rice leafroller (Test Example 3), judged grade [2]: D (79-50)

SMILES: Cc1cc(C(F)(F)C(F)(F)F)ccc1NC(=O)c1cccc(Cl)c1C(=O)NCCc1cccc(Cl)c1 [compound 1358]
- Insecticidal effect, Test Example 1 [1, 3]: A (100)
- Insecticidal effect, Test Example 3 [2, 4]: C (89-80)

SMILES: CCNC(=O)c1c(Cl)cccc1C(=O)Nc1ccc(C(F)(F)C(F)(F)F)cc1F [compound 1488]
- Insecticidal effect (Test Example 1), judged from mortality [1]: A (100)
- Insecticidal effect (Test Example 3), judged from mortality [2, 6]: A (100)

SMILES: CCN(Cc1ccccc1)C(=O)c1c(Cl)cccc1C(=O)Nc1ccc(C(F)(F)C(F)(F)F)cc1C [compound 1457]
- Insecticidal effect (Test Example 1), judged from mortality [1]: A (100)
- Insecticidal effect (Test Example 3), judged from mortality [2, 6]: A (100)

SMILES: CC(C)(C)NC(=O)c1ccccc1C(=O)Nc1ccc(OC(F)(F)F)cc1Cl [compound 1021]
- Insecticidal effect, Test Example 1 [1, 3]: A (100)
- Insecticidal effect, Test Example 3 [2, 4]: A (100)

SMILES: Cc1cccc(CNC(=O)c2cccc(Cl)c2C(=O)Nc2ccc(C(F)(F)C(F)(F)F)cc2C)c1 [compound 1340]
- Insecticidal effect, Test Example 1 [1, 3]: A (100)
- Insecticidal effect, Test Example 3 [2, 4]: A (100)

SMILES: CC(C)NC(=O)c1cccc(I)c1C(=O)Nc1ccc(C(F)(F)F)cc1Cl [compound 433]
- Insecticidal effect, Test Example 1 [1, 5]: A (100)
- Insecticidal effect, Test Example 3 [2, 6]: A (100)

SMILES: CCN(CC)C(=O)c1c(C(=O)Nc2ccc(Cl)cc2C)cccc1[N+](=O)[O-] [compound 1135]
- Insecticidal effect, Test Example 1 [1, 3]: A (100)
- Insecticidal effect, Test Example 3 [2, 4]: A (100)

SMILES: CC(C)NC(=O)c1c(I)cccc1C(=O)Nc1ccc(Br)cc1C(F)(F)C(F)(F)F [compound 1409]
- Insecticidal effect, Test Example 1 [1, 3]: A (100)
- Insecticidal effect, Test Example 3 [2, 4]: A (100)

SMILES: CCNC(=O)c1cccc(I)c1C(=O)Nc1ccc(OC(F)(F)C(F)F)cc1C [compound 1057]
- Insecticidal effect, Test Example 1 [1, 3]: A (100)
- Insecticidal effect, Test Example 3 [2, 4]: A (100)

SMILES: CCNC(=O)c1c(F)cccc1C(=O)Nc1ccc(C(F)(F)C(F)(F)F)cc1F [compound 1510]
- Insecticidal effect (Test Example 1), judged from mortality [1]: A (100)
- Insecticidal effect (Test Example 3), judged from mortality [2, 6]: A (100)

SMILES: CC(C)NC(=O)c1cc(Cl)ccc1C(=O)Nc1cccc(C(F)(F)F)c1 [compound 171]
- Insecticidal effect, Test Example 1 [1, 5]: A (100)
- Insecticidal effect, Test Example 3 [2, 6]: D (79-50)

Reference: patent publication US6362369B1, “Phthalic acid diamide derivatives fluorine-containing aniline compounds as starting material, agricultural and horticultural insecticides, and a method for application of the insecticides” (Nihon Nohyaku Co., Ltd., priority 1997, dated 2002)
